Results on 39 compounds are retold here after patent US12643858B2 (Inipharm, Inc., priority 2020, dated 2026).

The target in the assay is T1, HSD17B13 enzyme (Homo sapiens, UniProt Q7Z5P4).
T1 construct: His; made in house; host or cells: E. coli
T1 sequence (Q7Z5P4 20-300): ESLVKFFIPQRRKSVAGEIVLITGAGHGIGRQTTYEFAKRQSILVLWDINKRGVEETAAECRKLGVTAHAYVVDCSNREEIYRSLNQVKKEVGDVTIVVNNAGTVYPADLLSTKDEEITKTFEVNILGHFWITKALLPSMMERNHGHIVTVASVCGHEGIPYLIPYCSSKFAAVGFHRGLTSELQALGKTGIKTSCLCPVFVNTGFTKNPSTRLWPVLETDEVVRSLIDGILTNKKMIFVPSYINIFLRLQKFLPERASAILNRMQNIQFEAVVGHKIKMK
As to the kind of experiment: NADH detection assay (fluorescence based LTB3 assay) for HSD17B13 activity. The format is biochemical. As to conditions: substrate 25 μM LTB3, 3 mM NAD+, 125 nM HSD17B13 enzyme, 1 hour at 26.5° C. The procedure:
Example A: NADH Detection Assay for Evaluation of HSD17ß13 Activity and Identification of Inhibitors
The fluorescence based Leukotriene B3 (LTB3) assay monitors the fluorescence of NADH, which is generated from NAD+ during the dehydrogenation of the substrate LTB3. The reactions were performed in a 384-well plates (Greiner; #655076) in a 20 μl reaction volume containing the following reagents (final concentrations): 25 μM LTB3 (Cayman; #20109); 3 mM NAD+ (Sigma; #N0623); 125 nM HSD17B13 enzyme (in-house; E. coli expressed His-tagged, purified, soluble protein); […] potassium phosphate buffer, pH 7.4; and 1% DMSO. Reactions were initiated by co-addition of NAD+ and enzyme, and monitored for 1 hour at 26.5° C. Generation of NADH was measured as the fluorescence signal (Excitation at 340 nm and Emission at 445 nm) at 1 hour minus the baseline fluorescence at t=0. Fluorescence signals in the absence of LTB3 (negative control values), were subtracted from all values so that the results reflected substrate-dependent production of NADH. NADH standards were included to allow the conversion of relative fluorescence units into rates of enzyme activity. Enzyme activity in the presence of test compounds was expressed as a percentage of the uninhibited enzyme activity, and plotted versus inhibitor concentration. Non-linear regression was performed using a four-parameter logistic model and GraphPad Prism software (GraphPad Software, La Jolla, CA). Ten concentrations of inhibitor were tested (in the range of 30 μM-2.5 nM), and two independent assessments were performed at each concentration.

A word on the IC50: it is the midpoint of a concentration-inhibition curve. Read a high IC50 as weaker potency in that assay. The compound `Oc1cc(Oc2cccc(-c3cccnc3)n2)ccc1F` [Example 1, 5-([2,3′-bipyridin]-6-yloxy)-2-fluorophenol] displayed an IC50 not above 5 µM.

With `Oc1cccc(-c2cccc(Oc3cccnc3)n2)c1F` [Example 2, 2-fluoro-3-(6-(pyridin-3-yloxy)pyridin-2-yl) phenol], the IC50 is 5 to 10 µM.

For the compound `Oc1cc(Oc2cccc(-c3ccc4cn[nH]c4c3)n2)ccc1F` [Example 3, 5-((6-(1H-indazol-6-yl)pyridin-2-yl)oxy)-2-fluorophenol], the IC50 is 5 to 10 µM.

Take `Oc1cccc(-c2cccc(Oc3ccc4cn[nH]c4c3)n2)c1F` [Example 4, 6-((6-(2-fluoro-3-methoxyphenyl)pyridin-2-yl)oxy)-1H-indazole and 3-(6-((1H-indazol-6-yl)oxy)pyridin-2-yl)-2 fluorophenol]: the IC50 was not above 5 µM.

In turn, `O=c1ccc(Oc2cccc(-c3cccc(O)c3F)n2)cn1C(F)F` [Example 5, 1-(difluoromethyl)-5-((6-(2-fluoro-3-hydroxyphenyl)pyridin-2-yl)oxy)pyridin-2(1H)-one] had an IC50 of more than 30 µM.

In turn, `COc1cccc(-c2cccc(Oc3ccc4c(c3)NC(=O)C4)n2)c1F` [Example 6, 6-{[6-(2-fluoro-3-methoxyphenyl)pyridin-2-yl]oxy}-2,3-dihydro-1H-indol-2-one] had an IC50 of more than 30 µM.

`O=C1Cc2ccc(Oc3cccc(-c4cccc(O)c4F)n3)cc2N1` [Example 7] displayed an IC50 of more than 30 µM.

In turn, `Oc1cc(Oc2cccc(-c3cccs3)n2)ccc1F` [Example 8, 2-fluoro-5-((6-(thiophen-2-yl)pyridin-2-yl)oxy) phenol] had an IC50 of 5 to 10 µM.

On to `Oc1cc(Oc2cccc(-c3cc4ccccc4s3)n2)ccc1F` [Example 9, 5-((6-(benzo[b]thiophen-2-yl)pyridin-2-yl)oxy)-2-fluorophenol], for which the IC50 is 10 to 30 µM.

With `COc1cc(Oc2nccc(-c3cccc(O)c3F)n2)ccc1F` [Example 10, 2-fluoro-3-[2-(4-fluoro-3-methoxyphenoxy)pyrimidin-4-yl]phenol], the IC50 is more than 30 µM.

`Oc1cc(Oc2nccc(-c3cccc(O)c3F)n2)ccc1F` [Example 11, 2-fluoro-3-[2-(4-fluoro-3-hydroxyphenoxy)pyrimidin-4-yl]phenol] returned an IC50 of 10 to 30 µM.

Compound `Oc1cc(Oc2cccc(-c3ccc(OCc4ccccc4)cc3)n2)ccc1F` [Example 12, 5-((6-(4-(benzyloxy)phenyl)pyridin-2-yl)oxy)-2-fluorophenol] had an IC50 not above 5 µM.

Compound `Oc1cccc(-c2cccc(Oc3ccc(F)c(C(F)F)c3)n2)c1F` [Example 13, 3-{6-[3-(difluoromethyl)-4-fluorophenoxy]pyridin-2-yl}-2-fluorophenol] registered an IC50 of 5 to 10 µM.

`Oc1cccc(-c2cccc(Oc3ccc(F)c(OC(F)F)c3)n2)c1F` [Example 14, 3-{6-[3-(difluoromethoxy)-4-fluorophenoxy]pyridin-2-yl}-2-fluorophenol]: the concentration for half-maximal inhibition (IC50) was more than 30 µM.

`Oc1cc(Sc2cccc(-c3cccc(O)c3F)n2)ccc1F` [Example 15, 2-fluoro-3-(6-((4-fluoro-3-hydroxyphenyl)thio)pyridin-2-yl) phenol] came in with an IC50 not above 5 µM.

`COc1cc(Oc2ccnc(-c3cccc(O)c3F)n2)ccc1F` [Example 16, 2-fluoro-3-[4-(4-fluoro-3-methoxyphenoxy)pyrimidin-2-yl]phenol] returned an IC50 of more than 30 µM.

As to `Oc1cc(Oc2ccnc(-c3cccc(O)c3F)n2)ccc1F` [Example 17, 2-fluoro-3-[4-(4-fluoro-3-hydroxyphenoxy)pyrimidin-2-yl]phenol], the IC50 was not above 5 µM.

`O=S(=O)(Nc1cccc(-c2cccc(Oc3ccc(F)c(O)c3)n2)c1)c1ccccc1` [Example 18, N-(3-(6-(4-fluoro-3-hydroxyphenoxy)pyridin-2-yl)phenyl) benzenesulfonamide] gave an IC50 not above 5 µM.

Compound `CN(C)S(=O)(=O)c1cccc(-c2cccc(Oc3ccc(F)c(O)c3)n2)c1` [Example 20, 3-(6-(4-fluoro-3-hydroxyphenoxy)pyridin-2-yl)-N,N-dimethylbenzenesulfonamide] returned an IC50 of 5 to 10 µM.

For the compound `CNc1nc2cc(-c3cccc(Oc4ccc(F)c(O)c4)n3)ccc2s1` [Example 21], the IC50 was in the range of 5 to 10 µM.

As to `N#Cc1c(Oc2ccc(F)c(O)c2)cccc1-c1cccc(O)c1F` [Example 22, 2′-fluoro-3-(4-fluoro-3-hydroxyphenoxy)-3′-hydroxy-[1,1′-biphenyl]-2-carbonitrile], the IC50 is not above 5 µM.

`CN(c1ccc(F)c(O)c1)c1cccc(-c2cccc(O)c2F)c1C#N` [Example 23] came in with an IC50 of more than 30 µM.

As to `NC(=O)c1ccc(-c2cccc(O)c2F)nc1Oc1ccc(F)c(O)c1` [Example 25, 2-(4-fluoro-3-hydroxyphenoxy)-6-(2-fluoro-3-hydroxyphenyl)pyridine-3-carboxamide], the IC50 was not above 5 µM.

Regarding `CC(=O)Nc1nc2cc(-c3cccc(Oc4ccc(F)c(O)c4)n3)ccc2[nH]1` [Example 26, N-(5-(6-(4-fluoro-3-hydroxyphenoxy)pyridin-2-yl)-1H-benzo [d]imidazol-2-yl)acetamide], the IC50 is not above 5 µM.

The compound `N#Cc1cc(Oc2ccc(F)c(O)c2)nc(-c2cccc(O)c2F)c1` [Example 27, 2-(4-fluoro-3-hydroxyphenoxy)-6-(2-fluoro-3-hydroxyphenyl) pyridine-4-carbonitrile] gave an IC50 not above 5 µM.

For `Oc1cc(Oc2cccc(-c3ccc(O)c(OCc4ccccc4)c3)n2)ccc1F` [Example 28, 2-(benzyloxy)-4-[6-(4-fluoro-3-hydroxyphenoxy)pyridin-2-yl] phenol], the IC50 was not above 5 µM.

The compound `NS(=O)(=O)Nc1cc(Oc2cccc(-c3cccc(O)c3F)n2)ccc1F` [Example 30, N-(2-fluoro-5-{[6-(2-fluoro-3-hydroxyphenyl)pyridin-2-yl]oxy}phenyl)aminosulfonamide] returned an IC50 of more than 30 µM.

On to `O=S1(=O)CCN(c2ccc(-c3cccc(Oc4ccc(F)c(O)c4)n3)cc2)CC1` [Example 31, 4-(4-(6-(4-fluoro-3-hydroxyphenoxy)pyridin-2-yl)phenyl)thiomorpholine 1,1-dioxide], for which the 50% inhibitory concentration (IC50) is not above 5 µM.

As for `Nc1nc2cc(-c3cccc(Oc4ccc(F)c(O)c4)n3)ccc2o1` [Example 32, 5-{[6-(2-amino-1,3-benzoxazol-5-yl)pyridin-2-yl]oxy}-2-fluorophenol], the IC50 is 5 to 10 µM.

`CN1CCOc2cc(-c3cccc(Oc4ccc(F)c(O)c4)n3)ccc21` [Example 33, 2-fluoro-5-((6-(4-methyl-3,4-dihydro-2H-benzo[b][1,4]oxazin-7-yl)pyridin-2-yl)oxy)phenol] gave a concentration for half-maximal inhibition (IC50) not above 5 µM.

Turning to `Oc1cc(Oc2cccc(-c3ccc(OCc4ccccc4)c(F)c3)n2)ccc1F` [Example 34, 5-({6-[4-(benzyloxy)-3-fluorophenyl]pyridin-2-yl}oxy)-2-fluorophenol], the IC50 was more than 30 µM.

As for `COc1ccc(Oc2cccc(-c3cccc(O)c3F)n2)cc1C(=O)O` [Example 35, 5-((6-(2-fluoro-3-hydroxyphenyl)pyridin-2-yl)oxy)-2-methoxybenzoic acid], the IC50 is more than 30 µM.

Regarding `Oc1cccc(Oc2cccc(-c3cccc(O)c3F)n2)c1F` [Example 36, 2-fluoro-3-(6-(2-fluoro-3-hydroxyphenoxy)pyridin-2-yl)phenol], the IC50 was not above 5 µM.

`Oc1ccc(Oc2cccc(-c3cccc(O)c3F)n2)cc1F` [Example 37, 2-fluoro-3-[6-(3-fluoro-4-hydroxyphenoxy)pyridin-2-yl] phenol] showed a 50% inhibitory concentration (IC50) not above 5 µM.

In turn, `Oc1cc(Oc2cccc(-c3cccc(F)c3O)n2)ccc1F` [Example 38, 2-fluoro-5-((6-(3-fluoro-2-hydroxyphenyl)pyridin-2-yl)oxy)phenol] displayed an IC50 of more than 30 µM.

Regarding `Oc1cc(Oc2cccc(-c3ccc(O)c(F)c3)n2)ccc1F` [Example 39, 2-fluoro-4-(6-(4-fluoro-3-hydroxyphenoxy)pyridin-2-yl)phenol], the IC50 was not above 5 µM.

Compound `Oc1cc(Oc2cccc(-c3ccc(F)c(O)c3)n2)ccc1F` [Example 40, 2-fluoro-5-(6-(4-fluoro-3-hydroxyphenoxy)pyridin-2-yl)phenol] had a concentration for half-maximal inhibition (IC50) not above 5 µM.

As to `O=c1[nH]c2ccc(Oc3cccc(-c4cccc(O)c4F)n3)cc2[nH]1` [Example 41, 5-((6-(2-fluoro-3-hydroxyphenyl)pyridin-2-yl)oxy)-1,3-dihydro-2H-benzo[d]imidazol-2-one], the IC50 was in the range of 5 to 10 µM.

With `CC(=O)N1CCN(S(=O)(=O)c2cccc(-c3cccc(Oc4ccc(F)c(O)c4)n3)c2)CC1` [Example 42, 1-(4-{3-[6-(4-fluoro-3-hydroxyphenoxy)pyridin-2-yl]benzenesulfonyl}piperazin-1-yl)ethan-1-one], the IC50 is more than 30 µM.
